| melting point [°C] | SMILES |
| --- | --- |
| 44.6 to 45.3 | COCC1(CCCCCCCCCCCCC2(C(=O)NS(C)(=O)=O)CC2)CC1 |
| 86 to 93 | CC(N)=CC(=O)NCCN1CCOCC1 |
| 125 to 126 | CC1=CC(=C(CC(C)CC(C)(C)C)c2cc(C)cc(C)c2OCc2ccccc2)C(O)C(C)=C1 (stereo not given) |
| 168 to 170 | CC1(C)C2CC[C@]1(C)C(=O)C(C(=O)Nc1ccc([N+](=O)[O-])cc1)C2=O (stereo not given in full) |
| 90 to 91 | Cn1cc(Oc2ccc(Cl)cc2)c(=O)c(-c2cccc(C(F)(F)F)c2)c1 |
| 282 | CC1CCCC(Cc2c[nH]c3c(=O)[nH]c(N)nc23)C1 (stereo not given) |
| 130 to 131 | COCCOCCOCC(=O)Nc1cc(N)cc(C(=O)O)c1 |
| 131 to 134 | Clc1ccc(Nc2nc3ccccc3c3[nH]c(C4CCC4)nc23)cc1Cl |
| 224 | Cn1c(=O)c2c(ncn2CC(N)=NO)n(C)c1=O |
| 136 to 140 | N#Cc1c(N2CCc3ccccc3CC2)nc2n(c1=O)CCCC2 |
| 167 to 169 | O=C(Oc1cc(OC(=O)c2cc(O)cc(O)c2)c2ccccc2c1)c1cc(O)cc(O)c1 |
| 90 to 92 | CCCN1c2cscc2CN(C)c2ccccc21 |
| 109 | CCCN(c1nc(-c2ccc(OC)cc2Cl)c(C)s1)c1cc(C(=O)O)ccc1OC |
| 277 to 278 | CCN(CC)S(=O)(=O)c1ccc2[nH]c(-c3c(C)c(Cl)cc(C(C)(C)C)c3O)nc2c1 |
| 162 to 167 | COc1cccc2c(=O)c(CO)cn(C)c12 |
| 60.5 to 61.5 | C#CCOc1cc(C(=O)OC)ccc1F |
| 134 to 136 | COc1ccc(Cn2c(-c3ccco3)nc3c(-c4ccco4)ncnc32)cc1 |
| 239 to 242 | Cn1c(=O)c(=NO)nc(-c2ccccc2)c2ccccc21 |
| 86 to 98 | Cc1noc(NS(=O)(=O)c2ccccc2-c2ccc(-c3ncco3)cc2COCC(C)C)c1C |
| 84 to 86 | O=C(CN1CC(O)CC1=O)Oc1ccc(Cl)c(Cl)c1Cl (stereo not given) |
| 85 to 90 | COCC1CN(CCOc2ccc(NC(=O)Nc3cc(C(C)(C)C)nn3-c3ccc(C)cc3)c3ccccc23)CCO1 (stereo not given) |
| 164 | COC(=O)c1cc(NC(=O)OC(C)(C)C)c(N)cc1C#Cc1ccccc1 |
| 165 to 166 | CC(=O)NCc1ccc(CN2CCN(c3cc(Cl)nc(Cl)n3)CC2)cc1 |
| 137 | N#Cc1c(N2CCN(C(=O)c3cccs3)CC2)c2cc(F)cnc2n(Cc2cccc(F)c2)c1=O |

| melting point [°C] | SMILES |
| --- | --- |
| 171 | Cc1ccc(S(=O)(=O)N2CCN(C(c3ccccc3)c3ccc(Cl)cc3)CC2)cc1 (single isomer, unassigned; (+)) |
| 214 to 216 | COC(=O)c1cn(C2CC2)c2c(F)c(F)c(F)cc2c1=O |
| 198 to 199 | N#CCCNC(=O)c1cccc(-c2ncc3ccn(Cc4ccc(Cl)cc4Cl)c3n2)c1 |
| 135 to 140 | COc1cc(NC(C)=O)c(Cl)cc1C(=O)N=[N+]=[N-] |
| 238 to 239 | CNC(=O)Cc1c(-c2cc(C)sc2C)nc2sc3ccccc3n12 |
| 157 to 161 | COc1ccc(-c2nc3cc(Cl)cc(C#CCN(O)C(=O)OC(C)(C)C)c3o2)cc1OC1CCCC1 |
| 49 to 51 | C1CNCCNCCCNCCNCCNC1 |
| 204 to 206 | COc1cc(Nc2nccc(-c3cccnc3)n2)ccc1-n1cnc(C)c1 |
| 177 to 180 | CCCN1CCCC1CNC(=O)c1cc(S(N)(=O)=O)cc2c1OC(C)C2 (stereo not given) |
| 243 to 244 | CC(C)(C)N1CC(=O)Nc2ccc(C#C[Si](C)(C)C)cc2C1=O |
| 152 to 154 | COc1ccc(/C=C(\C#N)c2ccc(Cl)c(Cl)c2)cc1OC1CCCC1 |
| 119 to 120 | OCc1ccc(-c2cccnc2)o1 |
| 320 to 340 | Cc1c(-c2ccc(Cl)cc2F)sc2nc(N)[nH]c(=O)c12 |
| 169 to 171 | CCC1c2ccccc2-c2sccc2N1S(=O)(=O)c1ccc(O)cc1 (stereo not given) |
| 123 to 124 | O=S(=O)(Cc1ccccc1)NCCCCOc1ccc(-n2ccnc2)cc1 |
| 103 | COc1ccc(OC)c([Si](C)(C)COc2cc(C(C)(C)C)c(O)c(C(C)(C)C)c2)c1 |
| 199 to 201 | COc1cc(N2CCCCC2)ccc1C(=O)c1ccccc1C(=O)O |
| 296 to 298 | CC(C)c1ccc(-c2cnc(-c3cccc(C(=O)O)c3)[nH]2)cc1 |
| 202 to 203 | Clc1cc(C(Cl)(Cl)Cl)c(Cl)cc1C(Cl)(Cl)Cl |
| 149 to 153 | O=c1c(Br)c(OCc2cccc(Cl)c2)ccn1Cc1cccc(F)c1 |
| 171 | Cc1cn(C2CC(ON)C(CO[Si](C)(C)C(C)(C)C)O2)c(=O)[nH]c1=O (stereo not given) |
| 43 to 45 | CCOC(=O)C(CC)Oc1ccccc1C(C)=O (stereo not given) |
| 156 to 157 | CCOCc1nc2c(N)nc3cccnc3c2n1CCCC(=O)N1CCOCC1 |
| 163 to 165 | CCCCN(C)C(N)=C(C#N)C(N)=S |

| melting point [°C] | SMILES |
| --- | --- |
| 226 | Cc1cc(-c2cc(C(F)F)n3ncc(C(=O)Nc4cccc(S(=O)(=O)N5CCCC5)c4)c3n2)ccc1C(F)(F)F |
| 158 to 159 | Cc1nn(C2CCCC2C)c(N)c1C#N (stereo not given) |
| 75 to 77 | CC(CCc1nnn[nH]1)Cc1ccc(OCc2ccc3ccccc3n2)cc1 (stereo not given) |
| 191 | OC1CSC(Oc2cc(-c3cncnc3)cc(F)c2F)C(O)C1O (stereo not given) |
| 290 to 295 | N#CC(C#N)=CNc1ccc(C2=NNC(=O)CC2)cc1 |
| 102 to 105 | CCCc1nc(N2CCOCC2)c2cscc2n1 |
| 119 to 121 | CS(=O)(=O)c1ccc(Oc2ccc(Cl)c(Cl)c2)c(N)c1 |
| 129 | CC(C)(C)OC(=O)NCC1CCN(CC2(C(=O)O)CCOCC2)CC1 |
| 176 | CN(c1ccc(O)cc1)c1nc2cc(Cl)c(Cl)cc2nc1Cl |
| 126 to 127 | CC(C)(C)OC(=O)NC(C)(C)c1ccc(-c2nc(Nc3ccc(OCCO)cc3)ncc2C#N)cc1 |
| 259 | O=C(Nc1nc(C(F)(F)F)co1)C1c2cc(F)ccc2Oc2ccc(F)cc21 |
| 149 to 151 | O=C1CCc2c(Br)cc([N+](=O)[O-])c(O)c21 |
| 165 to 166 | CN1CCC(c2ccc(F)cc2)(C(C)(C)O)CC1 |
| 205 to 208 | O=C(O)CC1(c2ccccc2)CCCC1C(=O)O (stereo not given) |
| 168 to 170 | CON=C(c1nnn[nH]1)c1ccccc1COc1cc(C)ccc1C |
| > 350 | O=c1cc[nH]c2nc(-c3ccncc3)ncc12 |
| 127 | CC1CCC(C(C)C)C(OC(=O)[C@@H](c2ccc(OCc3ccc4ccccc4n3)cc2)C2CCCCCC2)C1 (stereo not given in full) |
| 39 | O=C(O)CCCCCCc1cc(-c2ccccc2)c2ccccc2n1 |
| 121 to 123 | Cc1cc(C)c(C(=O)c2ccccc2)c(OCC(O)CNC(C)C)c1C (stereo not given) |
| 67 | O=C1CCCc2ccc(-c3ccccc3)cc21 |
| 47 to 49 | COc1ccc([N+](=O)[O-])c(F)c1 |
| 296 to 299 | Cc1ccccc1Sc1c(O)c2ccc(Cl)cc2[nH]c1=O |
| 190 | CCCS(=O)(=O)Oc1ccc(-c2c(C)c(C(=O)NN3CCCCC3)nn2-c2ccc(Cl)cc2Cl)cc1 |
| 231 to 232 | O=C(O)c1ccccc1NC(=O)c1ncoc1-c1ccc(C(F)(F)F)cc1 |

| melting point [°C] | SMILES |
| --- | --- |
| 115 | C(=Nn1ccnc1)c1ccccc1 |
| 212 to 213 | Cn1cc2c(n1)-c1c(Cc3ccccc3)sc(C(N)=O)c1CC2 |
| 127 to 130 | CCOC(=NC(=O)Nc1ccc(Oc2ncc(C(F)(F)F)cc2Cl)cc1)c1c(F)cccc1F |
| 167 to 169 | CC(=O)N(N=Cc1c(Cl)cccc1Cl)c1nncn1N(C)C(C)=O |
| 208 to 211 | O=C(O)c1ccc(NCCOc2ccc3ccccc3c2)cc1 |
| 180 | C[C@]12CCC3=C4CCC(=O)C=C4CC[C@H]3[C@@H]1CCC21OCCC1O (stereo not given in full) |
| 219 | COC(=O)CCCc1cc2nc(Cl)ccc2n1S(=O)(=O)c1ccc2snnc2c1 |
| 113 | CN1CCC(OC2c3ccccc3CCn3cc(-c4ccccc4)nc32)CC1 (stereo not given) |
| 292 to 294 | CCCCn1c(=O)c2c(NC)n[nH]c2n(Cc2ccc(Cl)cc2)c1=O |
| 94 to 95 | Cc1oc(/C=C/c2ccccc2)nc1COc1ccc(CCCn2ccnc2)cc1 |
| 218 to 220 | C[C@]1(CN2CCN(c3ccc(Cl)cc3)CC2)Cn2cc([N+](=O)[O-])nc2O1 |
| 200 | C[C@@H]1CN(CC(=O)Nc2nc3ccccc3n2C)C[C@H](C)N1c1ncnc2sccc12 |
| 76 to 79 | CCC1(CC)C(=O)ON(C(=O)c2ccccc2)C1=O |
| 108 to 110 | N#CN1CCC(c2nn(-c3ccc(F)cc3)c3ccccc23)CC1 |
| > 260 | CCCCc1cn(Cc2ccc(-c3ccccc3C(=O)O)cc2)c2cc(C(=O)O)ccc2c1=O |
| 183 to 185 | C=C(C(=O)O)c1ccc2c(c1)Cc1ccccc1-2 |
| 94 to 98 | CC(C)(C)c1cc(SC2CC(=O)N(C3CCCCC3)C2=O)cc(C(C)(C)C)c1O (stereo not given) |
| 145 to 147 | CC(=O)OCC1OC(N)C(OC(C)=O)C(OC(C)=O)C1OC(C)=O (stereo not given) |
| 250 to 251 | S=c1nc(-c2ccc(Br)cc2)[nH]n1Cc1ccccc1 |
| 246 to 252 | Oc1cc2c3ccc(O)c(O)c3n(CCCc3ccccc3)c2cc1O |
| 192 to 193 | CC1(C)C=C(n2cc(C#N)c3ccccc32)c2cc(C#N)ccc2O1 |
| 122 to 123 | CCOCC(=NO)C(C)(C)NCCCNC(C)(C)C(Cn1ccnc1[N+](=O)[O-])=NO |
| 248 to 249 | CC(C)(C)COc1ccc(N(CC(=O)O)C(=O)c2ccn(-c3ccc(F)cc3)c2)cc1C#N |

| SMILES | melting point [°C] |
| --- | --- |
| CC(Cc1ccc(OCCO)cc1)NCC(O)c1ccccc1F (stereo not given) | 80 to 95 |
| CC1(C)N=C(c2ccccc2Cl)c2cc(N)ccc2-n2cnnc21 | 264 |
| Cc1cc(C)n(C(=O)CCl)n1 | 62 |
| Cn1ccc2cc(NC(=O)c3cc4cc(F)ccc4n3Cc3cccc(F)c3)ccc21 | 187 to 189 |
| CN1CC[C@@H]2CC(=O)c3cc(F)ccc3[C@H]2C1 (relative stereo) | > 250 |

Reference: a melting point compilation (Tetko et al.; mined from patent text by program, amines drawn as free bases though some values may be those of a salt)
